Structures can show the parent of a compound that is named as a salt. Bounds are passed on as bounds.

As a reminder, the melting point is the temperature, or range, at which the solid turns liquid. `Cc1cc(NS(=O)(=O)Cc2ccccc2[N+](=O)[O-])cc(C)c1S(=O)(=O)C[N+](=O)[O-]`: the melting point was 189 to 190 °C.

Regarding `Cc1cc(NC(=O)CCCCCCC(=O)Nc2cc(C)c(S(=O)(=O)C[N+](=O)[O-])c(C)c2)cc(C)c1S(=O)(=O)C[N+](=O)[O-]`, the melting point lay within 235 to 238 °C.

`Cc1cc(NC(=O)CCCC(=O)Nc2cc(C)c(S(=O)(=O)C[N+](=O)[O-])c(C)c2)cc(C)c1S(=O)(=O)C[N+](=O)[O-]` had a melting point of 207 to 210 °C.

`Cc1cc(NS(=O)(=O)c2cccc(S(=O)(=O)Nc3cc(C)c(S(=O)(=O)C[N+](=O)[O-])c(C)c3)c2)cc(C)c1S(=O)(=O)C[N+](=O)[O-]` returned a melting point of 191 to 192 °C.

In turn, `Cc1cc(NC(=O)C(=O)Nc2cc(C)c(S(=O)(=O)C[N+](=O)[O-])c(C)c2)cc(C)c1S(=O)(=O)C[N+](=O)[O-]` returned a melting point of 246 to 248 °C.

As to `O=C(CCCC(=O)Nc1ccc(S(=O)(=O)C[N+](=O)[O-])cc1)Nc1ccc(S(=O)(=O)C[N+](=O)[O-])cc1`, the melting point lay within 203 to 205 °C.

As for `Cc1cc(N(C(=O)CCC(N)=O)c2cc(C)c(S(=O)(=O)C[N+](=O)[O-])c(C)c2)cc(C)c1S(=O)(=O)C[N+](=O)[O-]`, the melting point lay within 226 to 228 °C.

`Cc1cc(NC(=O)CC(=O)Nc2cc(C)c(S(=O)(=O)C[N+](=O)[O-])c(C)c2)cc(C)c1S(=O)(=O)C[N+](=O)[O-]` showed a melting point of 197 to 199 °C.

As for `Cc1cc(NC(=O)Nc2cc(C)c(S(=O)(=O)C[N+](=O)[O-])c(C)c2)cc(C)c1S(=O)(=O)C[N+](=O)[O-]`, the melting point was in the range of 224 to 226 °C.

`Cc1cc(NS(=O)(=O)Cc2cccc(CS(=O)(=O)Nc3cc(C)c(S(=O)(=O)C[N+](=O)[O-])c(C)c3)c2)cc(C)c1S(=O)(=O)C[N+](=O)[O-]` displayed a melting point of 124 to 130 °C.

In turn, `Cc1cc(NS(=O)(=O)c2cc(F)c(Br)cc2F)cc(C)c1S(=O)(=O)C[N+](=O)[O-]` (as salt: acetate) [Example 27, 4-Bromo-2,5-difluoro-N-[3,5-dimethyl-4-[(nitromethyl)-sulphonyl]phenyl]benzenesulphonamide] showed a melting point of 167 to 169 °C.

Compound `Cc1cc(NS(C)(=O)=O)cc(C)c1S(=O)(=O)C[N+](=O)[O-]` (as salt: acetate) [Example 40, N-[3,5-Dimethyl-4-[(nitromethyl)sulphonyl]phenyl]-methanesulphonamide] had a melting point of 138 to 140 °C.

In turn, `Cc1cc(NS(=O)(=O)c2ccccc2)cc(C)c1SC[N+](=O)[O-]` [Example 3, N-[3,5-Dimethyl-4-[(nitromethyl)thio]phenyl]benzenesulphonamide] displayed a melting point of 146 to 148 °C.

Turning to `Cc1cc(NS(=O)(=O)c2ccccc2)cc(C)c1[S+]([O-])C[N+](=O)[O-]` (stereo not drawn) [Example 4, N-[3,5-Dimethyl-4-[(nitromethyl)sulphinyl]phenyl]-benzenesulphonamide], the melting point is > 50 °C (dec.).

Consider `Cc1cc(NS(=O)(=O)c2ccc(Cl)cc2)cc(C)c1S(=O)(=O)C[N+](=O)[O-]` [Example 5, 4-Chloro-N-[3,5-dimethyl-4-[(nitromethyl)sulphonyl]-phenyl]benzenesulphonamide], for which the melting point was in the range of 160 to 162 °C.

On to `Cc1cccc(S(=O)(=O)Nc2cc(C)c(S(=O)(=O)C[N+](=O)[O-])c(C)c2)c1` [Example 6, N-[3,5-Dimethyl-4-[(nitromethyl)sulphonyl]phenyl]-3-methylbenzenesulphonamide], for which the melting point fell in the range of 179 to 181 °C.

In the case of `Cc1ccc(S(=O)(=O)Nc2cc(C)c(S(=O)(=O)C[N+](=O)[O-])c(C)c2)cc1` [Example 7, N-[3,5-Dimethyl-4-[(nitromethyl)sulphonyl]phenyl]-4-methylbenzenesulphonamide], the melting point lay within 163 to 165 °C.

Compound `Cc1cc(NS(=O)(=O)c2ccc(F)cc2F)cc(C)c1S(=O)(=O)C[N+](=O)[O-]` [Example 8, 2,4-Difluoro-N-[3,5-dimethyl-4-[(nitromethyl)sulphonyl]phenyl]benzenesulphonamide] came in with a melting point of 154 to 156 °C.

Regarding `Cc1cc(NS(=O)(=O)c2cccc(C(F)(F)F)c2)cc(C)c1S(=O)(=O)C[N+](=O)[O-]` [Example 9, N-[3,5-Dimethyl-4-[(nitromethyl)sulphonyl]phenyl]-3-(trifluoromethyl)benzenesulphonamide], the melting point lay within 146 to 148 °C.

For the compound `Cc1cc(NS(=O)(=O)c2ccc3ccccc3c2)cc(C)c1S(=O)(=O)C[N+](=O)[O-]` [Example 15, N-[3,5-Dimethyl-4-[(nitromethyl)sulphonyl]phenyl]-2-naphthalenesulphonamide], the melting point lay within 208 to 215 °C.

`Cc1cc(NS(=O)(=O)c2ccccc2Br)cc(C)c1S(=O)(=O)C[N+](=O)[O-]` [Example 17, 2-Bromo-N-[3,5-dimethyl-4-[(nitromethyl)sulphonyl]-phenyl]benzenesulphonamide] displayed a melting point of 140 to 142 °C.

`Cc1cc(NS(=O)(=O)c2ccc(S(C)(=O)=O)cc2)cc(C)c1S(=O)(=O)C[N+](=O)[O-]` [Example 18, N-[3,5-Dimethyl-4-[(nitromethyl)sulphonyl]phenyl]-4-(methylsulphonyl)benzenesulphonamide] displayed a melting point of 192 to 194 °C.

Turning to `Cc1cc(NS(=O)(=O)/C=C/c2ccccc2)cc(C)c1S(=O)(=O)C[N+](=O)[O-]` [Example 19, (E)-N-[3,5-Dimethyl-4-[(nitromethyl)sulphonyl]phenyl]-styrenesulphonamide], the melting point was 174 to 176 °C.

The compound `Cc1ccccc1S(=O)(=O)NC(=O)Nc1cc(C)c(S(=O)(=O)C[N+](=O)[O-])c(C)c1` [Example 20, 1-[3,5-Dimethyl-4-[(nitromethyl)sulphonyl]phenyl]-3-[(2-methylphenyl)sulphonyl]urea] registered a melting point of 194 to 196 °C.

In turn, `Cc1ccc(S(=O)(=O)NC(=O)Nc2cc(C)c(S(=O)(=O)C[N+](=O)[O-])c(C)c2)cc1` [Example 21, 1-[3,5-Dimethyl-4-[(nitromethyl)sulphonyl]phenyl]-3-[(4-methylphenyl)sulphonyl]urea] gave a melting point of 150 to 155 °C.

`CC(=O)Nc1ccc(S(=O)(=O)Nc2cc(C)c(S(=O)(=O)C[N+](=O)[O-])c(C)c2)cc1` [Example 22, N-[4-[3,5-Dimethyl-4-[(nitromethyl)sulphonyl]phenylsulphamoyl]phenyl]acetamide] yielded a melting point of 209 to 210 °C.

Turning to `Cc1cc(NS(=O)(=O)CC(F)(F)F)cc(C)c1S(=O)(=O)C[N+](=O)[O-]` [Example 23, N-[3,5-Dimethyl-4-[(nitromethyl)sulphonyl]phenyl]-2,2,2-trifluoroethanesulphonamide], the melting point lay within 168 to 170 °C.

Consider `Cc1cc(NS(=O)(=O)c2cc(F)ccc2F)cc(C)c1S(=O)(=O)C[N+](=O)[O-]` [Example 28, 2,5-Difluoro-N-[3,5-dimethyl-4-[(nitromethyl)sulphonyl]phenyl]benzenesulphonamide], for which the melting point was in the range of 132 to 134 °C.

Turning to `Cc1cc(NS(=O)(=O)c2cccc3ccccc23)cc(C)c1S(=O)(=O)C[N+](=O)[O-]` [Example 31, N-[3,5-Dimethyl-4-[(nitromethyl)sulphonyl]phenyl]-1-naphthalenesulphonamide], the melting point was 170 to 172 °C.

In turn, `Cc1cc(NS(=O)(=O)c2cccs2)cc(C)c1S(=O)(=O)C[N+](=O)[O-]` [Example 32, N-[3,5-Dimethyl-4-[(nitromethyl)sulphonyl]phenyl]-2-thiophenesulphonamide] registered a melting point of 158 to 159 °C.

Compound `Cc1cc(NS(=O)(=O)c2ccccc2)cc(C)c1S(=O)(=O)C(Cl)(Cl)[N+](=O)[O-]` [Example 33, N-[4-[(Dichloronitromethyl)sulphonyl]-3,5-dimethylphenyl]benzenesulphonamide] returned a melting point of 112 to 114 °C.

In turn, `Cc1cc(NS(=O)(=O)c2ccc(C(F)(F)F)cc2)cc(C)c1S(=O)(=O)C[N+](=O)[O-]` [Example 35, N-[3,5-Dimethyl-4-[(nitromethyl)sulphonyl]phenyl]-4-(trifluoromethyl)benzenesulphonamide] had a melting point of 187 to 188 °C.

As for `Cc1cc(NS(=O)(=O)c2ccc(OC(F)(F)F)cc2)cc(C)c1S(=O)(=O)C[N+](=O)[O-]` [Example 36, N-[3,5-Dimethyl-4-[(nitromethyl)sulphonyl]phenyl]-4-(trifluoromethoxy)benzenesulphonamide], the melting point was in the range of 180 to 182 °C.

The compound `Cc1cc(NS(=O)(=O)c2c(F)c(F)c(F)c(F)c2F)cc(C)c1S(=O)(=O)C[N+](=O)[O-]` [Example 37, N-[3,5-Dimethyl-4-[(nitromethyl)sulphonyl]phenyl]-2,3,4,5,6-pentafluorobenzenesulphonamide] returned a melting point of 128 to 130 °C.

On to `Cc1cc(NS(=O)(=O)c2ccc3oc4ccccc4c3c2)cc(C)c1S(=O)(=O)C[N+](=O)[O-]` [Example 38, N-[3,5-Dimethyl-4-[(nitromethyl)sulphonyl]phenyl]-2-dibenzofuransulphonamide], for which the melting point is 214 to 215 °C (dec.).

Turning to `Cc1cc(NS(=O)(=O)c2ccc(-c3ccccc3)cc2)cc(C)c1S(=O)(=O)C[N+](=O)[O-]` [Example 39, N-[3,5-Dimethyl-4-[(nitromethyl)sulphonyl]phenyl]-4-biphenylsulphonamide], the melting point was 206 to 208 °C (dec.).

As for `CC(=O)Nc1ccc(S(=O)(=O)Nc2cc(C)c(S(=O)(=O)C[N+](=O)[O-])c(C)c2)cc1Cl` [Example 43, N-[2-Chloro-4-[3,5-dimethyl-4-[(nitromethyl)sulphonyl]-phenylsulphamoyl]phenyl]acetamide], the melting point was in the range of 209 to 211 °C.

The compound `Cc1ccccc1S(=O)(=O)Nc1cc(C)c(S(=O)(=O)C[N+](=O)[O-])c(C)c1` [Example 45, N-[3,5-Dimethyl-4-[(nitromethyl)sulphonyl]phenyl]-2-methylbenzenesulphonamide] showed a melting point of 118 to 120 °C.

For `COc1cccc(S(=O)(=O)Nc2cc(C)c(S(=O)(=O)C[N+](=O)[O-])c(C)c2)c1` [Example 46, N-[3,5-Dimethyl-4-[(nitromethyl)sulphonyl]phenyl]-3-methoxybenzenesulphonamide], the melting point is 166 to 168 °C.
